Molecular target: Acetylcholinesterase (Homo sapiens, UniProt P22303)
Assay: Inhibition of human AChE by spectrophotometry

Sequence of Acetylcholinesterase (P22303 whole entry): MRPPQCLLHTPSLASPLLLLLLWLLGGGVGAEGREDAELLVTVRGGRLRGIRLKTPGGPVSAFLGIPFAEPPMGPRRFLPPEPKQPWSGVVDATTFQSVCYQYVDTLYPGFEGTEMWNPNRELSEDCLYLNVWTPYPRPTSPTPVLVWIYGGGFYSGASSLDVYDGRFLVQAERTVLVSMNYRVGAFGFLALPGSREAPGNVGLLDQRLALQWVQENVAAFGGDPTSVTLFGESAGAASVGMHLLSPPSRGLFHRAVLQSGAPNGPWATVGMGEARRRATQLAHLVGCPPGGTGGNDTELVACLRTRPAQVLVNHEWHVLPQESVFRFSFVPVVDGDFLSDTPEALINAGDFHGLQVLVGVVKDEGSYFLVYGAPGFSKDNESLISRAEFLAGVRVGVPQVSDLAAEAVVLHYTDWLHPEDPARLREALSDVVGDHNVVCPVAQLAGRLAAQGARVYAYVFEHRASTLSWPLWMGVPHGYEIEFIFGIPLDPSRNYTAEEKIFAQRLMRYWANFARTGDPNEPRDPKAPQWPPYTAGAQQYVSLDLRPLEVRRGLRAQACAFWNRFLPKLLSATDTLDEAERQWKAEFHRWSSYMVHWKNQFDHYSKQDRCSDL

Question: `CC[C@@H]1[C@H]2OC(=O)[C@@](C)(O)[C@H]2[C@]23CC[C@@H]([C@@H]4C[C@H](C)C(=O)O4)N2CCCC[C@H]13` was tested. Which IC50 did it give?
Answer: 68.8 µM

Question: `CC[C@H]1[C@H](C[C@H](C)C(=O)OC)O[C@]23CC[C@@H]([C@@H]4C[C@H](C)C(=O)O4)N2CCCC[C@]13O` was tested. Which IC50 did it give?
Answer: > 100 µM

Question: For `CC[C@H]1[C@H]2OC(=O)[C@](C)(O)[C@H]2[C@]23CC[C@@H]([C@@H]4C[C@@H](C)C(=O)O4)N2CCCC[C@@H]13`, which IC50 is on record?
Answer: 9.1 µM

Question: `CC[C@H]1[C@@H]2OC(=O)[C@@](C)(O)[C@@H]2[C@@]23CC[C@@H]([C@@H]4C[C@H](C)C(=O)O4)N2CCCC[C@H]13` was tested. Which IC50 did it give?
Answer: 17.1 µM

Question: Which IC50 does the source give for `CC[C@H]1[C@H](C[C@H](C)C(=O)OC)O[C@]23CC[C@@H]([C@@H]4C[C@H](C)C(=O)O4)N2CCCC[C@H]13` here?
Answer: 71.5 µM

Question: `CC[C@@H]1[C@H]2OC(=O)[C@](C)(O)[C@H]2[C@]23CC[C@@H]([C@@H]4C[C@@H](C)C(=O)O4)N2CCCC[C@@H]13` was tested. Which IC50 did it give?
Answer: > 100 µM

Question: `CC[C@H]1[C@H]2OC(=O)[C@@](C)(O)[C@H]2[C@]23CC[C@@H]([C@@H]4C[C@H](C)C(=O)O4)N2CCCC[C@H]13` was tested. Which IC50 did it give?
Answer: > 100 µM

Reference: ChEMBL document CHEMBL3232805, “Alkaloids from the roots of Stichoneuron caudatum and their acetylcholinesterase inhibitory activities” (J Nat Prod, 2014)
